Results published in the supplement of paper PMC10307832.

Legend:
Experiment in all cases: relative viability (nuclei count vs DMSO), 5 days (fraction); higher = more cells survive
[1] = compound: CC1=CN2C(=O)C=C(N=C2C(=C1)C(C)NC3=CC=CC=C3)N4CCOCC4 [TGX 221] + CCNC(=O)c1noc(-c2cc(C(C)C)c(O)cc2O)c1-c1ccc(CN2CCOCC2)cc1 [Luminespib] (partner 0.01 µM)
How it was run: (§1)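 Relative viability divides the nuclei count in treated wells by that in vehicle wells. Lung cancer cell lines were seeded in 1536-well plates, dosed by pin tool the next day, and fixed and stained after 5 days in one step with final 0.05% Triton X-100, 1% formaldehyde and 1 ug/ml Hoechst. Dosing was a single drug or a fixed anchor-drug dose plus five library-drug doses (not always all listed) in √10 steps, and values are medians of duplicate plates imaged at 4×.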

[2] = compound: C1=CC=C(C(=C1)C2=CC=C(C=C2)C3=CSC4=C3C(=C(C(=O)N4)C#N)O)O + Cc1nc(NC(=O)N2CCC[C@H]2C(N)=O)sc1-c1ccnc(C(C)(C)C(F)(F)F)c1 [Alpelisib] (partner 2 µM)
How it was run: as §1

[3] = compound: CC1=CN2C(=O)C=C(N=C2C(=C1)C(C)NC3=CC=CC=C3)N4CCOCC4 [TGX 221] + N=C(N)NC(=N)NCCc1ccccc1 [Phenformin] (partner 250 µM)
How it was run: as §1

[4] = compound: O=C(CCCCCCNC(=O)c1cnc(N(c2ccccc2)c2ccccc2)nc1)NO [Ricolinostat] + CC1(C)CCC(c2ccc(Cl)cc2)=C(CN2CCN(c3ccc(C(=O)NS(=O)(=O)c4ccc(N[C@H](CCN5CCOCC5)CSc5ccccc5)c(S(=O)(=O)C(F)(F)F)c4)cc3)CC2)C1 [Navitoclax] (partner 0.5 µM)
How it was run: as §1

[5] = compound: O=C(CCCCCCNC(=O)c1cnc(N(c2ccccc2)c2ccccc2)nc1)NO [Ricolinostat] + CS(=O)(=O)CCNCc1ccc(-c2ccc3ncnc(Nc4ccc(OCc5cccc(F)c5)c(Cl)c4)c3c2)o1 [Lapatinib] (partner 2 µM)
How it was run: as §1

NCI-H1792 was tested, and the relative viability ([1]; first compound 0.08 µM) was 0.52, the relative viability ([1]; first compound 0.253 µM) was 0.498 and the relative viability ([1]; first compound 0.8 µM) was 0.418. It also gave a relative viability ([1]; first compound 2.53 µM) of 0.375, a relative viability ([1]; first compound 8 µM) of 0.293 and a relative viability ([2]; first compound 0.253 µM) of 0.638. For the same cell line, the relative viability ([2]; first compound 0.8 µM) was 0.744, the relative viability ([2]; first compound 2.53 µM) was 0.612 and the relative viability ([2]; first compound 8 µM) was 0.336. The relative viability ([3]; first compound 0.8 µM) was 0.249, the relative viability ([3]; first compound 2.53 µM) was 0.319 and the relative viability ([3]; first compound 8 µM) was 0.283. For the same cell line, the relative viability ([4]; first compound 0.08 µM) was 0.438, the relative viability ([4]; first compound 0.253 µM) was 0.632 and the relative viability ([4]; first compound 0.8 µM) was 0.518. For the same cell line, the relative viability ([4]; first compound 2.53 µM) was 0.654, the relative viability ([5]; first compound 0.08 µM) was 0.719 and the relative viability ([5]; first compound 0.253 µM) was 0.918. The relative viability ([5]; first compound 0.8 µM) was 0.863 and the relative viability ([5]; first compound 2.53 µM) was 1.01.
